Data reported in US9393288B2, “Methods of treating diseases associated with PPARγ” (The University of Vermont and State Agricultural College, priority 2012, dated 2016).

Experiments:
[1] = rat, in vivo
Experimental: A separate group of SHR-F was used to determine if relaxin crosses the BBB by treating with relaxin (4 μg/hr) for 14 days and measuring relaxin concentration in cerebrospinal fluid (CSF) and serum (SHR-F-Rln-CSF, n=4). For the osmotic pump implant, animals were anesthetized with 3% isoflurane and minipumps implanted subcutaneously in the back of the neck. All animals received post-surgical analgesia (buprenorphine, 50 μg/kg, s.c.). Relaxin infusion was continuous for 14 days until animals were euthanized for isolated vessel experiments and tissue collection.
Animals were anesthetized with isoflurane (3% in oxygen), decapitated, and trunk blood was collected for measurement of circulating relaxin. Serum was then collected and stored at −80° C. for determination of relaxin levels by enzyme-linked immunosorbent assay (ELISA) following manufacturer's instructions (Human Relaxin-2 Quantikine ELISA Kit, R&D Systems, Minneapolis, Minn., USA). Serum samples were diluted by 1:500 in the assay.
To determine the presence of relaxin in CSF, animals were anesthetized and CSF collected through a needle inserted into the cisterna magna (Liu, L., and Duff, K. (2008) A technique for serial collection of cerebrospinal fluid from the cisterna magna in mouse. Journal of visualized experiments: JoVE). […] Relaxin levels were determined in serum and CSF by ELISA as described above, except CSF was not diluted.

[2] = tested on: middle cerebral arteries (MCA); experiment: Pressurized arteriograph: vascular reactivity and structure of MCA from relaxin-treated NP Sprague Dawley rats; format: in vivo, rat; settings: relaxin- vs vehicle-treated NP rats
Description: Animals and Treatment Groups: All procedures were approved by the Institutional Animal Care and Use Committee and conducted in accordance with the National Institutes of Health Guide for the Care and Use of Laboratory Animals. Female virgin NP Sprague Dawley rats (250-300 g, 14-16 weeks, Charles River, Canada) were used for all experiments and housed in the University of Vermont Animal Care Facility. Animals were randomly selected and grouped as untreated (N=4), treated with recombinant human relaxin-2 (relaxin, 4 μg/hr; N=14), relaxin plus a specific PPARγ inhibitor GW9662 (10 mg/kg daily in food; N=8), or vehicle (20 mM sodium acetate; N=14) for 10 days through osmotic minipumps (Alzet 2ML2, Durect Corp., Cupertino, Calif., USA). GW9662 treatment was started 1 day before and for the duration of relaxin treatment to ensure PPARγ was inhibited. Animals were anesthetized with 3% isoflurane and minipumps implanted subcutaneously in the back of the neck. All animals received post-surgical analgesic (buprenorphine, 50 μg/kg, s.c.). […]
Vessel Preparation and Pressurized Arteriograph System: After collecting trunk blood, the brain was quickly removed and placed in cold physiological salt solution (PSS). […] Temperature and pH were continuously measured and maintained at 37.0±0.5° C. and 7.40±0.05, respectively. […]
Vascular Reactivity and Structural Characteristics in PA and MCA: For the first set of experiments, PA and MCA were equilibrated for 1 hour at 25 mmHg, after which myogenic activity was determined by stepwise increases in pressure from 40 to 100 mmHg for PA or 50 to 175 mmHg for MCA. ID and WT were measured at each pressure once stable. Changes in ID and WT were measured in PA only in response to small- (SKCa) and intermediate- (IKCa) conductance calcium-activated potassium channels blockers, apamin (3×10^−7 M) and TRAM-34 (10^−6 M), respectively. […] We therefore assessed the effect of relaxin on constriction of PA in response to SKCa/IKCa channel inhibition in order to assess this unique pathway. […]

brain capillaries = experiment: Brain capillary density (von Willebrand factor immunohistochemistry, capillary counting) in SHR; format: in vivo, rat; settings: relaxin-treated SHR vs WKY and untreated SHR

Question: Which “Relaxin in CSF as share of that in the circulation” value [1] does the source give for relaxin here?
Answer: about 0.3%

Question: What about the “Relaxin in cerebrospinal fluid” value [1] of the same substance?
Answer: 110 ± 30 pg/mL

Question: What about the “Structure of MCA” value [2] of the same substance?
Answer: no effect

Question: And the “Tone of MCA” value [2]?
Answer: did not significantly affect

Question: And the “Active diameters of MCA” value ([2]; any pressure)?
Answer: no effect

Question: And the “Number of capillaries in the brain (capillary density)” value (brain capillaries)?
Answer: significant increase
